Reference: US7425568B2, “Compounds, which are potent inhibitors of Na+ /Ca2+ exchange mechanism and are useful in the treatment of arrhythmias” (Orion Corporation, priority 2001, dated 2008)

Test system: ouabain-induced arrhythmias in guinea-pig papillary muscles
Assay: Inhibition of ouabain-induced arrhythmias (aftercontractions) in isolated guinea-pig papillary muscles
Conditions: for maximum amplitude of aftercontractions #1: n=5, vehicle 143±54 mg
Method: The effects of the compounds of the invention were tested on ouabain-induced arrhythmias in guinea-pig papillary muscles.
Guinea-pig papillary muscles were mounted into horizontal muscle cuvette. A hook connected to force transducer was attached to another end of the muscle. Muscle preparations were electrically paced at 1 Hz with field stimulation via platinum electrodes. Modified Tyrode solution was used for superfusion of muscle preparations. The composition of the Tyrode solution was the following (mM): NaCl 135, MgCl2×6H2O 1, KCl 5, CaCl2×2H2O 2, NaHCO3 15, Na2HPO4×2H2O 1, and glucose 10. The Tyrode solution was gassed with carbogen (95% O2, 5% CO2) to set pH at 7.4. Experiments were carried out at 37° C. Acquisition and analysis of twitch tensions with Action Potential and Force Measurement System (ACFO v1.0, Fision Ltd, Finland).
Ouabain by blocking of sodium-potassium ATPase increase intracellular sodium which is changed for calcium via NCX. Increased intracellular calcium is leading to overload of sarcoplasmic reticulum (SR) and spontaneous calcium release from SR inducing delayed […] (DADs). Equivalence for DADs in force signal is aftercontractions (ACs) which are seen as spontaneous twitches after the pacing controlled twitch.
The compounds of the invention delayed appearance and decreased amplitude of aftercontractions.

| SMILES | appearance of aftercontractions (time to appearance) (30 μM, mean±SD, n=5, vehicle 25±8.9 min, p=0.013, paced at 1 Hz, 37° C) | maximum amplitude of aftercontractions #1 (30 μM, p=0.008) | maximum amplitude of aftercontractions #1 (10 μM, p=0.027) |
| --- | --- | --- | --- |
| CC(=O)Nc1ccc(Oc2ccc3c(c2)CCC(c2ccccc2)O3)nc1 (stereo not drawn) [Example 27] | 38 ± 7.5 min | 74 ± 16 mg |  |
| CS(=O)(=O)Nc1ccc(Oc2ccc3c(c2)CCC(c2cccc(F)c2)O3)nc1 (stereo not drawn) [Example 67, N-{6-[2-(3-Fluorophenyl)chroman-6-yloxy]pyridin-3-yl}methane Sulfonamide] |  |  | 88 ± 20 mg |
